The results in this text go back to patent publication US6641802B2, “Amino acid compounds and photoprotecting compositions comprised thereof” (Societe L'Oreal S.A., priority 2000, dated 2003).

The nature of series [1]: UV absorption spectrum of the compound as a 5% dispersion in liquid petrolatum (total transmission and reflection, spectrophotometer with integrating sphere). The format is physicochemical. The conditions noted are these: 60 μm film. As for the experimental part:
The UV absorption spectrum of the compound was measured as a 5% dispersion in liquid petrolatum. The total transmission and reflection of the dispersion was determined on a 60 μm film with a spectrophotometer equipped with an integrating sphere.
The UV absorption spectrum of the compound was measured as a 5% dispersion in liquid petrolatum. The total transmission and reflection of the dispersion was determined on a 60 μm film with a spectrophotometer equipped with an integrating sphere (8 trials).

For orientation: melting point means the temperature of the solid-liquid transition. In turn, `COc1ccc(C=CC(=O)NCCCCC(N)C(=O)O)cc1` (centres unmarked) [Example 2] came in with a melting point of more than 260 °C. In series [1], the absorption maximum worked out at 300 nm, the “shoulder (first shoulder)” value was found to be 320 nm and the “optical density at 310 nm” value worked out at 0.4.
The corresponding values for `N[C@@H](CCCCNC(=O)C=Cc1ccccc1)C(=O)O` [Example 1, N^ε-cinnamoyl-L-lysine] are more than 260 °C, 260 nm, 305 nm and 0.8.
